# In US20240408086A1, “USE OF LUVADAXISTAT FOR THE TREATMENT OF COGNITIVE IMPAIRMENT” (TAKEDA PHARMACEUTICAL COMPANY LIMITED, priority 2021, published 2024):
# Key:
# Mouse [1] = test: BALB/C social interaction; assay type: in vivo; design: key: a + sign means efficacious; a − sign means not efficacious; conditions: for BALB/C social interaction (negative symptoms): 14-Day Once Daily (QD); for BALB/C social interaction (acute): Single Dose
# Excerpt: (§1) In Table 1, a + sign means efficacious, a − sign means not efficacious, and an empty cell indicates a dose was not tested.
# Mouse [2] = test: Novel object recognition (cognition); assay type: in vivo; design: key: a + sign means efficacious; a − sign means not efficacious
# Excerpt: as §1
smiles,measurement,setting,value
"O=c1[nH]nc(CCc2ccc(C(F)(F)F)cc2)cc1O [Compound (I), luvadaxistat]",BALB/C social interaction (negative symptoms),Mouse [1]; 0.001 mg/kg,−
same,BALB/C social interaction (negative symptoms),Mouse [1]; 0.003 mg/kg,−
same,BALB/C social interaction (negative symptoms),Mouse [1]; 0.01 mg/kg,+
same,BALB/C social interaction (negative symptoms),Mouse [1]; 0.03 mg/kg,+
same,BALB/C social interaction (negative symptoms),Mouse [1]; 0.1 mg/kg,+
same,BALB/C social interaction (negative symptoms),Mouse [1]; 0.3 mg/kg,+
same,BALB/C social interaction (negative symptoms),Mouse [1]; 1 mg/kg,+
same,BALB/C social interaction (negative symptoms),Mouse [1]; 3 mg/kg,+
same,BALB/C social interaction (acute),Mouse [1]; 0.3 mg/kg,−
same,BALB/C social interaction (acute),Mouse [1]; 1 mg/kg,+
same,BALB/C social interaction (acute),Mouse [1]; 3 mg/kg,+
same,Novel object recognition (cognition),"Mouse [2]; 14-Day Once Daily (QD), 0.001 mg/kg",−
same,Novel object recognition (cognition),"Mouse [2]; 14-Day Once Daily (QD), 0.003 mg/kg",+
same,Novel object recognition (cognition),"Mouse [2]; 14-Day Once Daily (QD), 0.01 mg/kg",+
same,Novel object recognition (cognition),"Mouse [2]; 14-Day Once Daily (QD), 0.03 mg/kg",+
same,Novel object recognition (cognition),"Mouse [2]; 14-Day Once Daily (QD), 0.1 mg/kg",+
same,Novel object recognition (cognition),"Mouse [2]; 14-Day Once Daily (QD), 0.3 mg/kg",−
same,Novel object recognition (cognition),"Mouse [2]; 14-Day Once Daily (QD), 1 mg/kg",−
same,Novel object recognition (cognition),"Mouse [2]; 14-Day Once Daily (QD), 3 mg/kg",−
same,Novel object recognition (cognition),"Mouse [2]; Single Dose, 0.1 mg/kg",−
same,Novel object recognition (cognition),"Mouse [2]; Single Dose, 0.3 mg/kg",+
same,Novel object recognition (cognition),"Mouse [2]; Single Dose, 1 mg/kg",+
same,Novel object recognition (cognition),"Mouse [2]; Single Dose, 3 mg/kg",+
same,Novel object recognition (cognition),"Mouse [2]; Single Dose, 10 mg/kg",+
